In article PMC6761534 (Antimicrobial Agents and Chemotherapy, 2019):

Columns and labels:
Format in all cases: cell-based, Mycobacterium tuberculosis
[1] = system: M. tuberculosis c subunit mutant strain I66M
[2] = system: M. tuberculosis c subunit mutant strain A63P
[3] = system: M. tuberculosis c subunit mutant strain D28G
[4] = system: M. tuberculosis c subunit mutant strain D28A
[5] = system: M. tuberculosis c subunit mutant strain E61D
[6] = system: M. tuberculosis c subunit mutant strain D28V
M. tuberculosis H37Rv = system: M. tuberculosis H37Rv

Row | SMILES | MIC90 fold increase in M. tuberculosis c subunit mutant strain I66M [1] [fold] | MIC90 fold increase in M. tuberculosis c subunit mutant strain A63P [2] [fold] | MIC90 fold increase in M. tuberculosis c subunit mutant strain D28G [3] [fold] | MIC90 fold increase in M. tuberculosis c subunit mutant strain D28A [4] [fold] | MIC90 fold increase in M. tuberculosis c subunit mutant strain E61D [5] [fold] | MIC90 fold increase in M. tuberculosis c subunit mutant strain D28V [6] [fold] | Mutation frequency (M. tuberculosis H37Rv) | No. of atpE mutants/total no. of mutants isolated (M. tuberculosis H37Rv)
1 | COc1nc2ccc(Br)cc2cc1[C@@H](c1ccccc1)[C@@](O)(CCN(C)C)c1cccc2ccccc12 [BDQ, Bedaquiline, reference compound] | 262 | >400 | >400 | >400 | 312 | >400 |  | 
2 | COc1cc([C@](O)(CCN(C)C)[C@@H](c2cc3cc(Br)ccc3nc2OC)c2cc(OC)nc(OC)c2OC)cc(OC)n1 [TBAJ-876] | 59 | 48 | 104 | 140 | 100 | 132 | 4.23 × 10^−9 | 5/5
3 | COc1cc([C@](O)(CCN(C)C)[C@@H](c2cc3cc(Br)ccc3nc2OC)c2ccnc(OC)c2OC)cc(OC)n1 [compound 5307] | 87 | 150 | 235 | 357 | 100 | 360 | 3.00 × 10^−8 | 33/34
4 | COc1cc([C@](O)(CCN(C)C)[C@@H](c2cc3cc(Br)ccc3nc2OC)c2cccc3c2OCCO3)cc(OC)n1 [compound 5316] | 42 | 72 | 200 | 200 | 105 | 200 | 6.36 × 10^−9 | 7/7
5 | COc1cc([C@](O)(CCN(C)C)[C@H](c2cc(OC(C)C)cnc2OC)c2cc3cc(Br)ccc3nc2OC)cc(OC)n1 [compound 5366] | 50 | 50 | 300 | 333 | 45 | 250 | 2.54 × 10^−8 | 28/28
